Patent publication US20250275959A1, “COMPOUNDS AND METHODS OF THEIR USE” (LEXICON PHARMACEUTICALS, INC., priority 2024, published 2025)

How the values were obtained:
hACSL5 [1] = target: T1, hACSL5 (Homo sapiens (Human), UniProt Q9ULC5); experiment: Human ACSL5 coupled enzyme Amplex Red assay; type: biochemical; conditions: read-out: hACSL5 IC50
Method in brief: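 C-terminally His-tagged ACSL5 (33-683) from sf9 cells, 20 nM, was preincubated with compound in MOPS-NaOH pH 7.6 with MgCl2, peroxidase and acyl-CoA oxidase. Reactions were started with 25 μM oleate, 30 μM CoA, 1 mM ATP and 50 μM Amplex Red; fluorescence (535/590 nm) after 10 minutes at 25° C. was fitted to the Hill equation for IC50 and maximal inhibition.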
Target sequence in this assay (Q9ULC5 33-683): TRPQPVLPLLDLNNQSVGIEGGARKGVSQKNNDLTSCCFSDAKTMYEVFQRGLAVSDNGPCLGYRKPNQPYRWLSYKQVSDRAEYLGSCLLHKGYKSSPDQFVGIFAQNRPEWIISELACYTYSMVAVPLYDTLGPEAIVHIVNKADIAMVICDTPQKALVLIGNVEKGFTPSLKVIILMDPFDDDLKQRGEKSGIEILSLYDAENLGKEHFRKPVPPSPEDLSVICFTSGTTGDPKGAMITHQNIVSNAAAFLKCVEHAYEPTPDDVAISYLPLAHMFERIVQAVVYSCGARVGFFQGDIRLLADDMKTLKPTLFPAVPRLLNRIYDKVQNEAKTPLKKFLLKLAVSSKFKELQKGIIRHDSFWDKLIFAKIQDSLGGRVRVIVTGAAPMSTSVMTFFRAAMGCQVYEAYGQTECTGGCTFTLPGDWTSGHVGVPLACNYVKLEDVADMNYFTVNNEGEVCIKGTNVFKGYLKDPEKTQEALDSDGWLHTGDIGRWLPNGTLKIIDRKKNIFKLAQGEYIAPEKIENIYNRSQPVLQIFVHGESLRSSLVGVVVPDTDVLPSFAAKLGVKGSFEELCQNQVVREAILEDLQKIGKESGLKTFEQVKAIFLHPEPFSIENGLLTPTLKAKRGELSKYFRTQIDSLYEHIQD

hACSL5 [2] = target: T1, hACSL5; experiment: Cell-based assay (CBA) with B12FA in hACSL5-transfected Expi293F / FlpIn TRex293 cells; conditions: hACSL5-expressing cells
Excerpt: To assess the cell penetration and cellular activity of the compounds, a cell-based assay (CBA) was used to detect compound potency in living cells. The assay utilized the fluorescent fatty acid analogue B12FA, a boron-dipyrromethene (BODIPY™) labelled C12 fatty acid that can be incorporated into glycerophosphocholine in the cytoplasmic oil droplets of live cells. A concentration-dependent, red-shifted fluorescence can be induced by the formation of BODIPY™ excimers in the oil droplets.
Expi293F cells transfected with full length hACSL5 plasmid were selected using 1 mg/mL G418 culture medium and clones were selected by in vitro whole cell lysate (WCL) assay. The cell passage number used in the Expi293 CBA assay could not be used beyond 10 passages due to a decrease in hACSL5 expression. Therefore, a CBA using FlpIn TRex293 cells for inducible expression of hACSL5 was also established.
FlpIn TRex293 cells transfected with hACSL5 plasmid were selected in culture medium containing 15 µg/ml Blasticidin and 150 µg/ml Hygromycin. For cell-based assays, stable transfected hACSL5 cells were seeded onto a 96-well plate at 30-50k/well and incubated overnight. For the inducible system, […] tetracycline (or doxycycline) was added to culture medium of FlpIn TRex293 hACSL5 cells on the day before the assay to induce expression of hACSL5. The next day, growth media was replaced with culture medium without FBS and glucose (DMEM glucose (-), ThermoFisher) and cells were incubated for an hour before treating cells with serial diluted compounds containing 20 µM B12FA (ThermoFisher) for another 3 hours in the above medium. Cells were then fixed in 4% formaldehyde for 10 minutes and washed twice with PBS. The plate was read using the Cytation 5 imaging system with an excitation wavelength of 485 nm and observed emissions at 630 nm and 520 nm. The percentage of inhibition was calculated as: […]
wherein A is the ratio of emission intensities at 630 nm/520 nm in the absence of inhibitor (maximum ratio); B is the ratio of the intensities at those wavelengths in the presence of […] of the test compound or non-induced cells (minimum ratio); and X is the ratio of the intensities at a given compound concentration.
Concentration-response titration points for each compound tested were filled to the Hill equation yielding concentrations of half maximal inhibition […] and maximal inhibition values.
Target sequence in this assay (Q9ULC5 whole entry): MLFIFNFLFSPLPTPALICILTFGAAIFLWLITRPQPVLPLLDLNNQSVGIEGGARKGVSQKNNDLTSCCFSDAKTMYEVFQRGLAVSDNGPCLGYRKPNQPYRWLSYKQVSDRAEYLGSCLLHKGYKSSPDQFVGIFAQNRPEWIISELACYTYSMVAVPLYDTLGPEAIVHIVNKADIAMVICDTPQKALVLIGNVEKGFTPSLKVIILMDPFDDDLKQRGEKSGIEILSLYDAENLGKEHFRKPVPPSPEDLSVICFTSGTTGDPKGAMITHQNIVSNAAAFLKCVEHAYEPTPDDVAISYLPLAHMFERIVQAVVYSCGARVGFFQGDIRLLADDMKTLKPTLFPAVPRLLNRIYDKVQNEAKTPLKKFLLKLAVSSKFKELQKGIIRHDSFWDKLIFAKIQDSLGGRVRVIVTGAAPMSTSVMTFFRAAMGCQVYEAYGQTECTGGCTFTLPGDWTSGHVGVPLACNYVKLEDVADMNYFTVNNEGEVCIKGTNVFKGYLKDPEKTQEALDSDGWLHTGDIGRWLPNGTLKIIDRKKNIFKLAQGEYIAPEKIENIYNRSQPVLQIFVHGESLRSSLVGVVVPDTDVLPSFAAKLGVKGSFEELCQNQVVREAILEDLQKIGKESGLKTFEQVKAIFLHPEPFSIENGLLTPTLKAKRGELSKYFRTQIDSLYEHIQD

SMILES	IC50 (hACSL5 [1]) [µM]	IC50 (hACSL5 [2]) [µM]
CC[C@@H](Oc1ccc(C(=O)NS(=O)(=O)N2CCN(CC(C)(C)F)CC2)c(F)c1F)c1ccc(OCC2CC2)cn1 [(R)-4-(1-(5-(cyclopropylmethoxy)pyridin-2-yl)propoxy)-2,3-difluoro-N-((4-(2-fluoro-2-methylpropyl)piperazin-1-yl)sulfonyl)benzamide]	< 0.1	< 0.1
CC[C@@H](Oc1ccc(C(=O)NS(=O)(=O)N2CCN(CC(C)(C)O)CC2)c(F)c1F)c1ccc(OCC2CC2)cn1 [(R)-4-(1-(5-(cyclopropylmethoxy)pyridin-2-yl)propoxy)-2,3-difluoro-N-((4-(2-hydroxy-2-methylpropyl)piperazin-1-yl)sulfonyl)benzamide]	< 0.1	0.1 to 0.5
CC[C@@H](Oc1ccc(C(=O)NS(=O)(=O)N2CCN(CCOC)CC2)c(F)c1F)c1ccc(OCC2CC2)cn1 [(R)-4-(1-(5-(cyclopropylmethoxy)pyridin-2-yl)propoxy)-2,3-difluoro-N-((4-(2-methoxyethyl)piperazin-1-yl)sulfonyl)benzamide]	< 0.1	< 0.1
CC[C@@H](Oc1ccc(C(=O)NS(=O)(=O)c2ccc(OCCN3CCOCC3)cc2)c(F)c1F)c1ccc(OCC2CC2)cn1 [(R)-4-(1-(5-(cyclopropylmethoxy)pyridin-2-yl)propoxy)-2,3-difluoro-N-((4-(2-morpholinoethoxy)phenyl)sulfonyl)benzamide]	< 0.1	> 0.5
CC[C@@H](Oc1ccc(C(=O)NS(=O)(=O)c2ccc(OC3CCN(CC(C)(C)O)CC3)cc2)c(F)c1F)c1ccc(OCC2CC2)cn1 [(R)-4-(1-(5-(cyclopropylmethoxy)pyridin-2-yl)propoxy)-2,3-difluoro-N-((4-((1-(2-hydroxy-2-methylpropyl)piperidin-4-yl)oxy)phenyl)sulfonyl)benzamide]	< 0.1	0.1 to 0.5
CC[C@@H](Oc1ccc(C(=O)NS(=O)(=O)N2CCC(OC3CCN(CC(C)(C)O)CC3)CC2)c(F)c1F)c1ccc(OCC2CC2)cn1 [(R)-4-(1-(5-(cyclopropylmethoxy)pyridin-2-yl)propoxy)-2,3-difluoro-N-((4-((1-(2-hydroxy-2-methylpropyl)piperidin-4-yl)oxy)piperidin-1-yl)sulfonyl)benzamide]	< 0.1	0.1 to 0.5
CC[C@@H](Oc1ccc(C(=O)NS(=O)(=O)c2ccc(OC3CCN(CCO)CC3)cc2)c(F)c1F)c1ccc(OCC2CC2)cn1 [(R)-4-(1-(5-(cyclopropylmethoxy)pyridin-2-yl)propoxy)-2,3-difluoro-N-((4-((1-(2-hydroxyethyl)piperidin-4-yl)oxy)phenyl)sulfonyl)benzamide]	< 0.1	0.1 to 0.5
CC[C@@H](Oc1ccc(C(=O)NS(=O)(=O)c2ccc(OC3CCN(CCOC)CC3)cc2)c(F)c1F)c1ccc(OCC2CC2)cn1 [(R)-4-(1-(5-(cyclopropylmethoxy)pyridin-2-yl)propoxy)-2,3-difluoro-N-((4-((1-(2-methoxyethyl)piperidin-4-yl)oxy)phenyl)sulfonyl)benzamide]	< 0.1	< 0.1
CC[C@@H](Oc1ccc(C(=O)NS(=O)(=O)N2CCC(OC3CCN(CCOC)CC3)CC2)c(F)c1F)c1ccc(OCC2CC2)cn1 [(R)-4-(1-(5-(cyclopropylmethoxy)pyridin-2-yl)propoxy)-2,3-difluoro-N-((4-((1-(2-methoxyethyl)piperidin-4-yl)oxy)piperidin-1-yl)sulfonyl)benzamide]	< 0.1	< 0.1
[2H]C([2H])([2H])N1CCC(Oc2ccc(S(=O)(=O)NC(=O)c3ccc(O[C@H](CC)c4ccc(OCC5CC5)cn4)c(F)c3F)cc2)CC1 [(R)-4-(1-(5-(cyclopropylmethoxy)pyridin-2-yl)propoxy)-2,3-difluoro-N-((4-((1-(methyl-d3)piperidin-4-yl)oxy)phenyl)sulfonyl)benzamide]	< 0.1	< 0.1
